This assay has as its target 5-hydroxytryptamine receptor 2A (Rattus norvegicus, UniProt P14842). Kind of assay: Binding affinity for 5-hydroxytryptamine 2A receptor, activity is expressed as IC50 values.

The structures appear in SMILES notation.

Sequence of 5-hydroxytryptamine receptor 2A (P14842 whole entry): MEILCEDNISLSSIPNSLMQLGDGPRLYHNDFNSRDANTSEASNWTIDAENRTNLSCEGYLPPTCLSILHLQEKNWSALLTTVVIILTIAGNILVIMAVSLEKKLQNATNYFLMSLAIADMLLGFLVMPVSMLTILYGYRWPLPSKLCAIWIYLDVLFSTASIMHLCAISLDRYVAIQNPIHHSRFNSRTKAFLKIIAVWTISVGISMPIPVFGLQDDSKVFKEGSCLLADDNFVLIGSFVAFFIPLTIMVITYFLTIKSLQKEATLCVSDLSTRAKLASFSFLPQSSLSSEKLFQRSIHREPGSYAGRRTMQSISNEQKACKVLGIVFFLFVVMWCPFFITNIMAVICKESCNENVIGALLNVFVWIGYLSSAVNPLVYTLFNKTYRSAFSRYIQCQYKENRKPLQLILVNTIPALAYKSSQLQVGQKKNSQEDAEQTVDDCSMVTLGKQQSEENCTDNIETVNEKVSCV

With `CC1(C)CN(C2CC(c3ccc(F)cc3)c3ccc(Cl)cc32)CCN1` (stereo unspecified) [1-[6-Chloro-3-(4-fluoro-phenyl)-indan-1-yl]-3,3-dimethyl-piperazine], the IC50 was 3.2 nM.

(Values after BindingDB's records for doi:10.1021/jm00022a004 (H. Lundbeck, 1995).)
